Data on five molecules can be found in ChEMBL document CHEMBL1147567, “Neuroprotective effects of flavones on hydrogen peroxide-induced apoptosis in SH-SY5Y neuroblostoma cells” (Bioorg Med Chem Lett, 2004).

The test system of experiment [1] is SH-SY5Y. In words: Percent increase against SH-SY5Y human neuroblastoma cell viability induced by hydrogen peroxide at 10 uM concentration. In kind it is functional.
A short description of experiment [2]: Free radical scavenging activity of DPPH was determined. (The DPPH test is a chemical assay of radical scavenging.)
The subject of experiment [3] is SH-SY5Y. In words: Percent increase against SH-SY5Y human neuroblastoma cell viability induced by hydrogen peroxide at 50 uM concentration. Format: functional.
Experiment [4] concerns SH-SY5Y. Description: Percent increase against SH-SY5Y human neuroblastoma cell viability induced by hydrogen peroxide at 2 uM concentration. Format: functional.

pIC50: −log10 of the molar value.

The pIC50 is −log10 of the IC50, conventionally taken in molar units. On to `O=c1cc(-c2ccc(O)cc2)oc2cc(O)cc(O)c12` [APIGENIN], for which the results for the Increase in the experiment with SH-SY5Y [1], with SH-SY5Y [3] and with SH-SY5Y [4] were 52.4%, 63.7% and 24.6%, respectively. For the same molecule, in experiment [2], the negative logarithm of the IC50 (pIC50) was < 4.00.

For `O=C1O[C@H]([C@@H](O)CO)C(O)=C1O` [ASCORBIC ACID], the negative-log IC50 (pIC50) in experiment [2] is 4.58.

As to `O=c1cc(-c2ccccc2)oc2cc(O)cc(O)c12` [CHRYSIN], the pIC50 in experiment [2] was < 4.00.

Take `O=c1cc(-c2ccc(O)c(O)c2)oc2cc(O)cc(O)c12` [LUTEOLIN]: the figures for the Increase in the experiment with SH-SY5Y [1], with SH-SY5Y [3] and with SH-SY5Y [4] were 84%, 77.5% and 76.4%, respectively. This molecule gave a pIC50 in experiment [2] of 4.98.

`COc1c(O)cc(O)c2c(=O)cc(-c3ccccc3)oc12` [WOGONIN]: the pIC50 in experiment [2] is < 4.00.
